From ChEMBL document CHEMBL1151994, “Plant seeds as sources of potential industrial chemicals, pharmaceuticals, and pest control agents” (2009)
In brackets after ≈: the same amount, converted by molar mass.

Experiments:
Type in all cases: functional
Ostrinia nubilalis = assay: Insecticidal activity against Ostrinia nubilalis; conditions: read-out: LD50 (the source's name)
P388 [1] = assay: In vivo antitumor activity against mouse P388 cells at 1 to 3.3 mg/kg relative to control; conditions: dose mg/kg 1-3.3
KB = assay: Cytotoxicity against human KB cells; conditions: for EC50: Homo sapiens, KB, read-out: ED50 (the source's name)
L1210 = assay: In vivo antitumor activity against mouse L1210 cells at 0.25 to 1 mg/kg relative to control; conditions: dose mg/kg 0.25-1
P388 [2] = assay: In vivo antitumor activity against mouse P388 cells at 0.25 to 1 mg/kg relative to control; conditions: dose mg/kg 0.25-1
PS [3] = assay: In vivo antitumor activity against […] PS cells at 8 to 23 ug/kg relative to control
[4] = In vivo antitumor activity against human B1 cells at 4 to 32 ug/kg relative to control
PS [5] = assay: In vivo antitumor activity against […] PS cells at 1 to 31 ug/kg relative to control

Compound `CO[C@@H]1[C@@H](O)[C@H](C)O[C@@H](O[C@H]2CC[C@@]3(C)[C@H](CC[C@@H]4[C@@H]3CC[C@]3(C)[C@@H](C5=CC(=O)OC5)CC[C@]43O)C2)[C@H]1OC(C)=O` has an LC50 (Ostrinia nubilalis) of 192 µg/mL (≈ 333 µM).
With `C/C=C(\C)C(=O)N[C@@H](c1ccccc1)[C@@H](O)C(=O)O[C@H]1C[C@@]2(O)[C@@H](OC(=O)c3ccccc3)[C@@H]3[C@]4(OC(C)=O)CO[C@@H]4C[C@H](O)[C@@]3(C)C(=O)[C@H](OC(C)=O)C(=C1C)C2(C)C` [CEPHALOMANNINE] the T/C (P388 [1]) was 158% and the EC50 (KB) was 0.0038 µg/mL (≈ 0.00457 µM).
In the case of `CO[C@H]1[C@H](O)[C@H](O[C@H]2CC[C@@]3(C)[C@H](CC[C@@H]4[C@@H]3CC[C@]3(C)[C@@H](C5=CC(=O)OC5)CC[C@]43O)C2)O[C@@H](C)[C@@H]1O` [NERIIFOLIN], the LC50 (Ostrinia nubilalis) is reported as 30 µg/mL (≈ 56.1 µM).
Work on `COC(=O)C[C@](O)(CCCC(C)(C)O)C(=O)O[C@@H]1C(OC)=C[C@]23CCCN2CCc2cc4c(cc2[C@H]13)OCO4` [OMACETAXINE MEPESUCCINATE] yielded a T/C (L1210) of 123% and a T/C (P388 [2]) of 244%.
`C=C1CO[C@](O)(C2OCOC(C3CC(=O)NC(=O)C3)[C@@H]2O)[C@H]1C` (stereo partly specified) [SESBANIMIDE A] gave an EC50 (KB) of 0.0077 µg/mL (≈ 0.0235 µM) and a T/C (PS [3]) of 140%.
For `COc1cc2cc(c1Cl)N(C)C(=O)C[C@H](OC(=O)[C@H](C)N(C)C(=O)C(C)C)[C@]1(C)O[C@H]1[C@H](C)[C@@H]1C[C@@](O)(NC(=O)O1)[C@H](OC)/C=C/C=C(\C)C2OC` (stereo partly specified) [TREWIASINE], the T/C [4] was 165%, the T/C (PS [5]) was 126% and the ED50 (KB) was 2 ×10⁻⁴ ug/ml.
